Measured values: patent publication US11147272B2, “Pyridone compounds and agricultural and horticultural fungicides comprising the same as active ingredients” (MITSUI CHEMICALS AGRO, INC., priority 2017, dated 2021)

Columns and labels:
Phytophthora infestans = experiment: whole plant or invertebrate; type: in vivo; settings: Late blight on tomato; class of control value
Puccinia recondita = experiment: Test Example E: Brown rust on wheat; type: in vivo; settings: Brown rust on wheat; class of control value
Botrytis cinerea = experiment: Test Example B: Gray mold on tomato; settings: Gray mold on tomato; class of control value
Plasmopara viticola = experiment: Test Example G: Downy mildew on vine; settings: Downy mildew on vine (Neomuscat); 250 ppm spray, 2.5 ml/pot; assessed 7 to 10 days after inoculation
Alternaia brassicicola = experiment: Test Example C: Alternaria sooty spot on cabbage; type: in vivo; settings: Alternaria sooty spot on cabbage; class of control value
From the text: Seeds of a test plant (cabbage variety: Shikidori) were planted and cultivated until the cotyledons extended.
<Control Value> Control value=100{1−(n/3)}

[1] = system: Blumeria graminis f. sp. hordei; experiment: Test Example D: Powdery mildew on barley; settings: Powdery mildew on barley; class of control value
[2] = system: Colletotrichum orbiculare; experiment: Test Example H: Anthracnose on cucumber; settings: Anthracnose on cucumber (Sagami Hanjiro); 250 ppm spray, 2.5 ml/pot; assessed 6 to 10 days after inoculation
Magnaporthe grisea = experiment: whole plant or invertebrate; type: in vivo; settings: Blast on rice; class of control value

Compound	Test F control value class (Phytophthora infestans)	Test E control value class (Puccinia recondita)	Test B control value class (Botrytis cinerea)	Test G control value class (Plasmopara viticola)	Test C control value class (Alternaia brassicicola)	Test D control value class [1]	Test H control value class [2]	Test A control value class (Magnaporthe grisea)
CCC(C)c1cc(Cl)c(=O)n(CC)c1-c1c(F)cc(OC)cc1F (stereo not shown) [compound 35]	L (50% or less control value)	H (more than 50% control value)	H (more than 50% control value)	L (50% or less control value)	H (more than 50% control value)	H (more than 50% control value)	H (more than 50% control value)	H (more than 50% control value)
CCC(C)C1=C(c2c(F)cc(OC)cc2F)N(CC)C(=O)C(Br)C1 (stereo not shown) [compound 36]	L (50% or less control value)	H (more than 50% control value)	H (more than 50% control value)	H (more than 50% control value)	H (more than 50% control value)	H (more than 50% control value)	H (more than 50% control value)	H (more than 50% control value)
CCn1c(-c2c(F)cc(F)cc2F)c(CC(C)C)ccc1=O [compound 37]	L (50% or less control value)	L (50% or less control value)	L (50% or less control value)	L (50% or less control value)	L (50% or less control value)	L (50% or less control value)	L (50% or less control value)	H (more than 50% control value)
CCn1c(-c2c(F)cc(F)cc2F)c(CC(C)C)ccc1=O [compound 38]	L (50% or less control value)	H (more than 50% control value)	H (more than 50% control value)	L (50% or less control value)	L (50% or less control value)	H (more than 50% control value)	L (50% or less control value)	H (more than 50% control value)
CCn1c(-c2c(F)cc(OC)cc2F)c(CC(C)C)ccc1=O [compound 39]	L (50% or less control value)	H (more than 50% control value)	H (more than 50% control value)	H (more than 50% control value)	H (more than 50% control value)	H (more than 50% control value)	H (more than 50% control value)	H (more than 50% control value)
CCn1c(-c2c(F)cc(F)cc2F)c(CC(C)C)cc(Br)c1=O [compound 40]	L (50% or less control value)	H (more than 50% control value)	H (more than 50% control value)	L (50% or less control value)	H (more than 50% control value)	H (more than 50% control value)	H (more than 50% control value)	H (more than 50% control value)
CCn1c(-c2c(F)cc(F)cc2F)c(CC(C)C)cc(Cl)c1=O [compound 41]	L (50% or less control value)	H (more than 50% control value)	H (more than 50% control value)	H (more than 50% control value)	H (more than 50% control value)	H (more than 50% control value)	H (more than 50% control value)	H (more than 50% control value)
CCn1c(-c2c(F)cc(OC)cc2F)c(CC(C)C)cc(Cl)c1=O [compound 42]	L (50% or less control value)	H (more than 50% control value)	H (more than 50% control value)	H (more than 50% control value)	H (more than 50% control value)	H (more than 50% control value)	H (more than 50% control value)	H (more than 50% control value)
CCn1c(-c2c(F)cc(OC)cc2F)c(CC(C)C)cc(Br)c1=O [compound 43]	L (50% or less control value)	H (more than 50% control value)	H (more than 50% control value)	H (more than 50% control value)	H (more than 50% control value)	H (more than 50% control value)	H (more than 50% control value)	H (more than 50% control value)
CCn1c(-c2c(F)cccc2F)c(CO)cc(Cl)c1=O [compound 44]	L (50% or less control value)	H (more than 50% control value)	H (more than 50% control value)	L (50% or less control value)	H (more than 50% control value)	L (50% or less control value)	L (50% or less control value)	L (50% or less control value)
CCn1c(-c2c(F)cccc2F)c(COC)cc(Cl)c1=O [compound 45]	L (50% or less control value)	H (more than 50% control value)	H (more than 50% control value)	L (50% or less control value)	H (more than 50% control value)	H (more than 50% control value)	L (50% or less control value)	H (more than 50% control value)
CCC(O)c1cc(Cl)c(=O)n(CC)c1-c1c(F)cc(F)cc1F (stereo not shown) [compound 46]	L (50% or less control value)	H (more than 50% control value)	H (more than 50% control value)	L (50% or less control value)	H (more than 50% control value)	H (more than 50% control value)	H (more than 50% control value)	H (more than 50% control value)
CCC(OC)c1cc(Cl)c(=O)n(CC)c1-c1c(F)cc(F)cc1F (stereo not shown) [compound 47]	L (50% or less control value)	H (more than 50% control value)	H (more than 50% control value)	H (more than 50% control value)	H (more than 50% control value)	H (more than 50% control value)	H (more than 50% control value)	H (more than 50% control value)
CCC(OC)c1cc(Cl)c(=O)n(CC)c1-c1c(F)cc(OC)cc1F (stereo not shown) [compound 48]	L (50% or less control value)	H (more than 50% control value)	H (more than 50% control value)	H (more than 50% control value)	H (more than 50% control value)	H (more than 50% control value)	H (more than 50% control value)	H (more than 50% control value)
